Reference: ChEMBL document CHEMBL3243983, “2-(Alkoxyaryl)-2-imidazoline monoamine oxidase inhibitors with antidepressant activity” (J Med Chem, 1978)
Active and inactive are the calls of the source. The rule behind the calls is not given here.

Species: Rattus norvegicus
Experiment: Irreversible inhibition of MAO in rat brain using serotonin as substrate preincubated for 15 mins measured after dialysis
Format: tissue-based

Compound | inhibition
CCCCCCCOc1ccc(C2=NCCN2)c2ccccc12 | 93%
CCCCOc1ccc(C2=NCCN2)c2ccccc12 | 77%

Species: Rattus norvegicus
Experiment: Inhibition of MAO in rat brain using serotonin as substrate preincubated for 15 mins
Format: tissue-based

Compound | inhibition
CCCCCCCOc1ccc(C2=NCCN2)c2ccccc12 | 91%
CCCCOc1ccc(C2=NCCN2)c2ccccc12 | 96%

Species: Rattus norvegicus
Experiment: Irreversible inhibition of MAO in rat brain using serotonin as substrate measured after dilution
Format: tissue-based

Compound | inhibition
CCCCCCCOc1ccc(C2=NCCN2)c2ccccc12 | Active
CCCCOc1ccc(C2=NCCN2)c2ccccc12 | Active

System: Mus musculus
Experiment: Antidepressant activity in mouse assessed as antagonism of tetrabenazine-induced symptoms at 10 mg/kg, ip administered 30 mins before 35 mg/kg, ip tetrabenazine challenge measured after 30 mins by arousal test
Format: functional

Compound | inhibition (INH)
CCCCCCCOc1ccc(C2=NCCN2)c2ccccc12 | <30%
Oc1ccc(C2=NCCN2)c2ccccc12 | <30%
c1ccc2c(c1)cc(C1=NCCN1)c1ccccc12 | <30%
CCCCOc1ccc(C2=NCCN2)c2ccccc12 | 60%
CCCCCOc1ccc(C2=NCCN2)c2ccccc12 | 50%
C#CCN(C)Cc1ccccc1 [PARGYLINE] | 60%
CCCCCCOc1ccc(C2=NCCN2)c2ccccc12 | 40%
CCCCOc1ccc2c(C3=NCCN3)cccc2c1 | 60%
CCCCOc1ccc(C2=NC(C)(C)CN2)c2ccccc12.Cl | <30%
CCCCCCOc1ccc2c(C3=NCCN3)cccc2c1 | <30%
CCCOc1ccc(C2=NCCN2)c2ccccc12 | 60%
CCCCOc1c(CCC)cc(C2=NCCN2)c2ccccc12 | <30%
CCCCOc1ccc(C2=NCCCN2)c2ccccc12 | 30%
CCCCOc1ccc(C2=NC(C)CN2)c2ccccc12 (stereo unspecified) | <60%
CCOc1ccc(C2=NCCN2)c2ccccc12 | 50%

System: not listed separately
Experiment: Inhibition of MAO in mouse brain using serotonin as substrate
Format: tissue-based

Compound | IC50
CCCCCCCOc1ccc(C2=NCCN2)c2ccccc12 | 400 nM
Oc1ccc(C2=NCCN2)c2ccccc12 | 12000 nM
c1ccc2c(c1)cc(C1=NCCN1)c1ccccc12 | 35000 nM
CCCCOc1ccc(C2=NCCN2)c2ccccc12 | 58 nM
CCCCCOc1ccc(C2=NCCN2)c2ccccc12 | 91 nM
C#CCN(C)Cc1ccccc1 [PARGYLINE] | 1200 nM
CCCCCCOc1ccc(C2=NCCN2)c2ccccc12 | 350 nM
CCCCOc1ccc2c(C3=NCCN3)cccc2c1 | 32 nM
CCCCOc1ccc(C2=NC(C)(C)CN2)c2ccccc12.Cl | 6000 nM
CCCCCCOc1ccc2c(C3=NCCN3)cccc2c1 | 3400 nM
CCCOc1ccc(C2=NCCN2)c2ccccc12 | 91 nM
CCCCOc1c(CCC)cc(C2=NCCN2)c2ccccc12 | 4900 nM
CCCCOc1ccc(C2=NCCCN2)c2ccccc12 | 50 nM
CCCCOc1ccc(C2=NC(C)CN2)c2ccccc12 (stereo unspecified) | 60 nM
CCOc1ccc(C2=NCCN2)c2ccccc12 | 54 nM
